Structures are written as SMILES. pKi: −log10 of the molar value.

Chain of human adenosine A2A receptors (P29274 whole entry): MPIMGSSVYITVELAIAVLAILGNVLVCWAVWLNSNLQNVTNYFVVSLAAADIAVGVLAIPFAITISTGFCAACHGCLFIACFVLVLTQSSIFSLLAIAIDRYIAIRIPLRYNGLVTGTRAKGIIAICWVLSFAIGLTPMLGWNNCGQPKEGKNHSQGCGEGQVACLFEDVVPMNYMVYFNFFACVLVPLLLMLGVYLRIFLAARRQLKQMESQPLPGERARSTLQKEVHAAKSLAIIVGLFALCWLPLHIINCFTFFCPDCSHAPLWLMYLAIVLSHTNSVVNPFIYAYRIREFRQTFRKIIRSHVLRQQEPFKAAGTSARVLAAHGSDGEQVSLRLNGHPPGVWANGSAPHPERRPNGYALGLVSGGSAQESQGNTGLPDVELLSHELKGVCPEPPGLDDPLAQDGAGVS

The first data set has as its target human adenosine A2A receptors (Homo sapiens, UniProt P29274). Briefly: Binding affinities at hA2A receptors, displacement of [3H]-CGS 21680.
Conditions: not given
(Loss of bound radioactivity is the signal in a displacement assay; it reports binding, not function.)
Consider `Nc1nc(-c2ccco2)c2ncn(C/C=C/c3ccccc3)c2n1` [Example 57, 6-(2-Furyl)-9-(1-phenyl-1-propene-3-yl)-9H-purine-2-amine], for which the pKi (as a rule, the Ki on a negative log10 scale, so that one unit is a factor of ten) was 7.92. With `CN(Cc1ccccc1)C(=O)n1cnc2c(-c3ccco3)nc(N)nc21` [Example 118, 2-Amino-N-benzyl-6-(2-furyl)-N-methyl-9H-purine-9-carboxamide], the pKi was 8.52.

`CCCCCNC(=O)n1cnc2c(-c3ccco3)nc(N)nc21` [Example 52, 2-Amino-6-(2-furyl)-N-n-pentyl-9H-purine-9-carboxamide] showed a pKi of 8.30. Molecule `Nc1nc(-c2ccco2)c2ncn(C(=O)NCc3ccc(Cl)c(Cl)c3)c2n1` [Example 80, 2-Amino-N-(3,4-dichlorobenzyl)-6-(2-furyl)-9H-purine-9-carboxamide] had a pKi of 8.30. On the same count and under the same terms, under `Nc1nc(-c2ccco2)c2ncn(Cc3cccc(Cl)c3)c2n1` [Example 125, 9-(3-Chlorobenzyl)-6-(2-furyl)-9H-purine-2-amine] stands 8.22; under `Nc1nc(-c2ccco2)c2ncn(C(=O)NCc3ccc(Cl)cc3Cl)c2n1` [Example 93, 2-Amino-N-(2,4-dichlorobenzyl)-6-(2-furyl)-9H-purine-9-carboxamide], 8.40; under `Cc1ccc(Cn2cnc3c(-c4ccco4)nc(N)nc32)cc1` [Example 127, 6-(2-Furyl)-9-(4-methylbenzyl)-9H-purine-2-amine], 8.05. For the molecule `Cc1cccc(Cn2cnc3c(-c4ccco4)nc(N)nc32)c1` [Example 126, 6-(2-Furyl)-9-(3-methylbenzyl)-9H-purine-2-amine], the pKi is 8.15. Turning to `COc1ccc(CNC(=O)n2cnc3c(-c4ccco4)nc(N)nc32)cc1` [Example 37, 2-Amino-6-(2-furyl)-N-(4-methoxybenzyl)-9H-purine-9-carboxamide], the pKi was 8.40. `CCCCNC(=O)n1cnc2c(-c3ccco3)nc(N)nc21` [Example 36, 2-Amino-N-n-butyl-6-(2-furyl)-9H-purine-9-carboxamide] had a pKi of 8.15. Same read-out and setting: to `Nc1nc(-c2ccco2)c2ncn(CCCc3cccnc3)c2n1` [Example 189, 6-(2-Furyl)-9-(3-(3-pyridyl)propyl)-9H-purine-2-amine] belongs 7.68. The same measure, in the same setting: under `Cc1cccc(Cn2cnc3c(-c4ccco4)nc(N)nc32)n1` [Example 212, 6-(2-Furyl)-9-(6-methyl-2-pyridyl)methyl-9H-purine-2-amine] stands 7.46.

`Nc1nc(-c2ccco2)c2ncn(S(=O)(=O)/C=C/c3ccccc3)c2n1` [Example 185, 6-(2-Furyl)-9-(2-phenylethenyl)sulphonyl-9H-purine-2-amine] showed a pKi of 8.15. `Nc1cccc(Cn2cnc3c(-c4ccco4)nc(N)nc32)c1` [Example 192, 9-(3-Aminobenzyl)-6-(2-furyl)-9H-purine-2-amine] gave a pKi of 7.62. `CN(C)c1nc(-c2ccco2)c2nc[nH]c2n1` [Example 3, N,N-Dimethyl-6-(2-furyl)-1H-purine-2-amine] gave a pKi of 7.64. With `Nc1nc(-c2ccco2)c2ncn(Cc3cc([N+](=O)[O-])ccc3F)c2n1` [Example 259, 9-(2-Fluoro-5-nitrobenzyl)-6-(2-furyl)-9H-purine-2-amine], the pKi was 7.96. Regarding `Nc1nc(-c2ccco2)c2ncn(Cc3ccccc3F)c2n1` [Example 157, 9-(2-Fluorobenzyl)-6-(2-furyl)-9H-purine-2-amine], the pKi is 8.40. As to `Nc1nc(-c2ccco2)c2ncn(S(=O)(=O)c3ccc(Br)cc3)c2n1` [Example 162, 9-(4-Bromophenyl)sulphonyl-6-(2-furyl)-9H-purine-2-amine], the pKi is 8.10.

Staying with this data set, now noted: human adenosine A2A receptor, radioligand [3H]-CGS 21680.
`Nc1nc(-c2ccco2)c2ncn(C(=O)NCc3cccs3)c2n1` [Example 202, 2-Amino-6-(2-furyl)-N-(2-thienylmethyl)-9H-purine-9-carboxamide] gave a pKi of 9.00.

On to `Nc1nc(-c2ccco2)c2ncn(C(=O)NCc3ccco3)c2n1` [Example 201, 2-Amino-6-(2-furyl)-N-(2-furylmethyl)-9H-purine-9-carboxamide], for which the pKi was 8.70. Same read-out and setting: under `Nc1nc(-c2ccco2)c2ncn(C(=O)NCc3ccc(F)cc3)c2n1` [Example 79, 2-Amino-N-(4-fluorobenzyl)-6-(2-furyl)-9H-purine-9-carboxamide] stands 9.00; under `COc1nc(-c2ccco2)c2ncn(C(=O)NCc3ccccc3)c2n1` [Example 112, N-Benzyl-2-methoxy-6-(2-furyl)-9H-purine-9-carboxamide], 8.10. `C[C@H](NC(=O)n1cnc2c(-c3ccco3)nc(N)nc21)c1ccccc1` [Example 45, (1S)-2-Amino-6-(2-furyl)-N-(1-phenyethyl)-9H-purine-9-carboxamide] showed a pKi of 8.70.

The molecule `Cc1cccc(CNC(=O)n2cnc3c(-c4ccco4)nc(N)nc32)c1` [Example 47, 2-Amino-6-(2-furyl)-N-(3-methylbenzyl)-9H-purine-9-carboxamide] showed a pKi of 9.00. The molecule `Nc1nc(-c2ccco2)c2ncn(C(=O)NCCc3ccccc3)c2n1` [Example 92, 2-Amino-6-(2-furyl)-N-(2-phenylethyl)-9H-purine-9-carboxamide] gave a pKi of 8.22. Molecule `Cc1ccc(CNC(=O)n2cnc3c(-c4ccco4)nc(N)nc32)cc1` [Example 38, 2-Amino-6-(2-furyl)-N-(4-methylbenzyl)-9H-purine-9-carboxamide] had a pKi of 9.00.

In turn, `Nc1nc(-c2ccco2)c2ncn(C(=O)NCc3ccccc3Cl)c2n1` [Example 39, 2-Amino-N-(2-chlorobenzyl)-6-(2-furyl)-9H-purine-9-carboxamide] had a pKi of 9.00. `Nc1nc(-c2ccco2)c2ncn(C(=O)NCc3ccccc3)c2n1` [Example 26, 2-Amino-N-benzyl-6-(2-furyl)-9H-purine-9-carboxamide] gave a pKi of 9.00.

Tested on in a further data set: not given
Test: not given
Conditions: not given
Take `C[Si](C)(C)CCOCn1cnc2c(-c3ccco3)nc(NCCO)nc21`: the melting point (commonly the temperature of the solid-liquid transition) lay within 125.9 to 126.4 °C. Turning to `CC(C)(C)NC(=O)n1cnc2c(-c3ccco3)nc(N)nc21` [Example 21, 2-Amino-N-tert-butyl-6-(2-furyl)-9H-purine-9-carboxamide], the melting point was 295 °C (dec.). As to `CC(C)(C)OC(=O)n1cnc2c(-c3ccco3)nc(Cl)nc21` [Example 7, tert-Butyl 2-chloro-6-(2-furyl)-9H-purine-9-carboxylate], the melting point was > 305 °C (dec.). The same measure, in the same setting: under `Nc1nc(-c2ccco2)c2ncn(CC(=O)NCc3ccccc3)c2n1` [Example 86, 2-Amino-N-benzyl-6-(2-furyl)-9H-purine-9-acetamide] stands 287.2 to 287.8 °C; under `Cn1cncc1-c1nc(N)nc2[nH]cnc12` [Example 209, 6-(1-Methyl-1H-imidazol-5-yl)-1H-purine-2-amine], 300 °C (dec.).

Molecule `COc1cc(Cn2cnc3c(-c4ccco4)nc(N)nc32)cc(OC)c1` [Example 219, 9-(3,5-Dimethoxybenzyl)-6-(2-furyl)-9H-purine-2-amine] gave a melting point of 205.3 to 205.4 °C. Take `CC(C)(C)OC(=O)n1cnc2c(-c3cccs3)nc(N)nc21` [Example 78, tert-Butyl 2-amino-6-(2-thienyl)-9H-purine-9-carboxylate]: the melting point was > 250 °C (dec.). The molecule `Nc1nc(-c2ccco2)c2ncn(CC(=O)NCc3ccccc3F)c2n1` [Example 237, 2-Amino-N-(2-fluorobenzyl)-6-(2-furyl)-9H-purine9-acetamide] yielded a melting point of 291.9 to 292.1 °C.

With `Nc1nc(-c2ccco2)c2ncn(CCN3C(=O)c4ccccc4C3=O)c2n1` [Example 174, 6-(2-Furyl)-9-(2-phthalimidoethyl)-9H-purine-2-amine], the melting point is 160 °C (dec.). `Clc1nc(-c2ccco2)c2nc[nH]c2n1` [Example 8, 2-Chloro-6-(2-furyl)-1H-purine]: the melting point is > 303 °C (dec.). Molecule `CN(C)C(=O)c1ccc(Cn2cnc3c(-c4ccco4)nc(N)nc32)cc1` [Example 233, 4-(2-Amino-6-(2-furyl)-9H-purine-9-ylmethyl)-N,N-dimethylbenzamide] had a melting point of 223.1 to 226.9 °C.

In turn, `Cc1ccc(S(=O)(=O)n2cnc3c(-c4ccco4)nc(N(C)C)nc32)cc1` [Example 56, N,N-Dimethyl-6-(2-furyl)-9-(4-methylphenylsulphonyl)-9H-purine-2-amine] had a melting point of 212.6 to 213 °C. The same measure, in the same setting: to `Cc1ccc(Cn2cnc3c(-c4ccco4)nc(C#N)nc32)cc1` [Example 173, 6-(2-Furyl)-9-(4-methylbenzyl)-9H-purine-2-carbonitrile] belongs 196.5 °C (dec.); to `CNC(=O)Cn1cnc2c(-c3ccco3)nc(N)nc21` [Example 89, 2-Amino-6-(2-furyl)-N-methyl-9H-purine-9-acetamide], 290.2 to 291.6 °C; to `CC(C)COC(=O)n1cnc2c(-c3ccco3)nc(N)nc21` [Example 20, 2-Methylpropyl 2-amino-6-(2-furyl)-9H-purine-9-carboxylate], > 300 °C (dec.). With `CN1CCN(C(=O)Cn2cnc3c(-c4ccco4)nc(N)nc32)CC1` [Example 97, 6-(2-Furyl)-9-(2-oxo-2-(4-methyl-1-piperazinyl)ethyl)-9H-purine-2-amine], the melting point was > 270 °C (dec.).

On to `CCOC(=O)Cn1cnc2c(-c3ccco3)nc(-c3ccco3)nc21` [Example 72, Ethyl 2,6-bis(2-furyl)-9H-purine-9-acetate], for which the melting point was found to be 314 °C. On the same count and under the same terms, to `CC(=O)n1cnc2c(-c3ccco3)nc(N)nc21` [Example 34, 9-Acetyl-6-(2-furyl)-9H-purine-2-amine] belongs > 300 °C (dec.); to `Cc1ccc(-c2nc(N)nc3[nH]cnc23)o1` [Example 195, 6-(5-Methyl-2-furyl)-1H-purine-2-amine], > 190 °C (dec.); to `C[C@H](N)Cn1cnc2c(-c3ccco3)nc(N)nc21` [Example 251, (2S)-9-(2-Amino-1-propyl)-6-(2-furyl)-9H-purine-2-amine], 247 to 252 °C.

(Values after patent US7452894B2, “Purine derivatives as purinergic receptor antagonists” (Vernalis Research Limited, priority 2001, dated 2008).)
